Laboratory results: PubChem BioAssay (NCI)
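A five-concentration, 48-hour dose response in 96-well plates underlies each endpoint, interpolated linearly between surrounding concentrations. Abbreviation: GI50, concentration required for 50% inhibition of growth. Definition used: TGI = concentration required for complete inhibition of growth.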

Assays:
Assay in all cases: inhibition of tumour cell growth, NCI panel, 48 h; in the data active means GI50 below about 0.43 µM; inactive means the rest
[1] = system: ACHN renal
[2] = system: BT-549 breast
[3] = system: HCT-15 colon
[4] = system: K-562 leukemia
[5] = system: MDA-MB-435
[6] = system: NCI-H460 lung
[7] = system: OVCAR-5 ovarian
[8] = system: SK-MEL-2 melanoma
[9] = system: SNB-75 CNS
[10] = system: U251 CNS

O=c1c2ccccc2[nH]n1Cc1ccccc1
> 100 µM: TGI [1] | TGI [2] | TGI [3] | TGI [4] | TGI [5] | TGI [6] | TGI [7] | TGI [8] | TGI [9] | TGI [10]

Oc1ccc([C@H]2c3c(O)cc(O)cc3C3c4c(cc(O)cc4[C@@H]2[C@H]2c4cc(O)cc5c4C(c4cc(O)cc(O)c4[C@@H]2c2ccc(O)cc2)[C@@H](c2ccc(O)cc2)O5)O[C@@H]3c2ccc(O)cc2)cc1 (stereo partly specified)
> 100 µM: TGI [1] | TGI [2] | TGI [3] | TGI [4] | TGI [5] | TGI [6] | TGI [7] | TGI [8] | TGI [9] | TGI [10]

Cc1cccc(Br)[n+]1[O-]
> 100 µM: TGI [1] | TGI [2] | TGI [3] | TGI [4] | TGI [5] | TGI [6] | TGI [7] | TGI [8] | TGI [9] | TGI [10]

CCOC(=O)NN(C(=O)OCC)C(C(=O)C1=CCCCC1)N(NC(=O)OCC)C(=O)OCC
> 100 µM: TGI [1] | TGI [2] | TGI [3] | TGI [4] | TGI [5] | TGI [6] | TGI [7] | TGI [8] | TGI [9] | TGI [10]

CCOC(=O)/C=C(\C(=O)OCC)n1ccc(=O)n(Cc2cnnn2CCCCOC(C)=O)c1=O
31.5 µM: TGI [9]
5.52 µM: TGI [1]
36.3 µM: TGI [8]
20.3 µM: TGI [3]
10.2 µM: TGI [4]
22.9 µM: TGI [5]
inactive: GI50 [4] 2.1 µM
29.4 µM: TGI [7]
26 µM: TGI [6]
30.2 µM: TGI [2]
> 59.3 µM: TGI [10]

CC(=O)Nc1ccc2nc(-c3ccccn3)c(-c3ccccn3)nc2c1
> 100 µM: TGI [1] | TGI [2] | TGI [3] | TGI [4] | TGI [5] | TGI [6] | TGI [7] | TGI [8] | TGI [9] | TGI [10]

O=C1CSC(c2c[nH]c3ccccc23)N1c1ccc(Cl)cc1 (stereo unspecified)
> 100 µM: TGI [1] | TGI [2] | TGI [3] | TGI [4] | TGI [5] | TGI [6] | TGI [7] | TGI [8] | TGI [9] | TGI [10]

COc1cc(-c2nc3ccc(N4CCN(C)CC4)cc3[nH]2)c(OC)c2[nH]c(COC(C)=O)nc12
82 µM: TGI [9]
> 100 µM: TGI [1] | TGI [2] | TGI [3] | TGI [4] | TGI [5] | TGI [6] | TGI [7] | TGI [8] | TGI [10]

CCCCCCCCCCCC(=O)OC[C@H](C[As](=O)(O)O)OC(=O)CCCCCCCCCCC
23.9 µM: TGI [3]
9.07 µM: TGI [1]
16.9 µM: TGI [6]
9.5 µM: TGI [5]
> 52.5 µM: TGI [4]
6.48 µM: TGI [8]
5.15 µM: TGI [10]
32.7 µM: TGI [7]
11.3 µM: TGI [2]
24.7 µM: TGI [9]

COc1ccc(/C=C/C(=O)/C=C/c2ccc(OC)cc2OC)c(OC)c1
8.4 µM: TGI [4]
13.1 µM: TGI [8]
36.5 µM: TGI [7]
21.8 µM: TGI [1]
20 µM: TGI [3]
45.1 µM: TGI [9]
8.24 µM: TGI [5]
23.4 µM: TGI [10]
48 µM: TGI [2]
24 µM: TGI [6]

CSc1nc(C)cc(Nc2ccc(O)c(CN3CCOCC3)c2)n1
> 100 µM: TGI [1] | TGI [2] | TGI [3] | TGI [4] | TGI [5] | TGI [6] | TGI [7] | TGI [8] | TGI [9] | TGI [10]

NC(N)=NS(=O)(=O)c1ccc(N/N=C2/CCOC2=O)cc1
> 100 µM: TGI [1] | TGI [2] | TGI [3] | TGI [4] | TGI [5] | TGI [6] | TGI [7] | TGI [8] | TGI [10]
58.7 µM: TGI [9]

COc1cc(CSc2ccc(O)cc2)cc(OC)c1OC
> 100 µM: TGI [1] | TGI [3] | TGI [4] | TGI [5] | TGI [6] | TGI [7] | TGI [10]
48.3 µM: TGI [2]
86.2 µM: TGI [9]
67 µM: TGI [8]

CCCNC(=S)N/N=C(\C)c1ccc(S(=O)(=O)N(C)c2ccccc2)cc1
> 58.4 µM: TGI [9]
> 64.9 µM: TGI [1]
> 100 µM: TGI [2] | TGI [3] | TGI [4] | TGI [5] | TGI [6] | TGI [7] | TGI [8]
> 78 µM: TGI [10]

Cc1nc(SCC(=O)Nc2ccc(Cl)cc2)c2sc(=S)n(-c3ccccc3)c2n1
> 10 µM: TGI [1] | TGI [2] | TGI [3] | TGI [4] | TGI [5] | TGI [6] | TGI [7] | TGI [8] | TGI [9] | TGI [10]

COc1cc(C)c(/C=C2/N=C(c3ccccc3)OC2=O)c([N+](=O)[O-])c1OC
> 100 µM: TGI [1] | TGI [2] | TGI [3] | TGI [4] | TGI [5] | TGI [6] | TGI [7] | TGI [8] | TGI [9] | TGI [10]

CSC1(C)C(=O)Nc2c(OCc3ccccc3)cc([N+](=O)[O-])cc21 (stereo unspecified)
37.3 µM: TGI [10]
> 100 µM: TGI [1] | TGI [2] | TGI [3] | TGI [4] | TGI [5] | TGI [6] | TGI [7] | TGI [8]
35.7 µM: TGI [9]

COc1cc2c(c(OC)c1OC)C(=O)[C@@H]1[C@H]2N1C(=O)NCCCl
> 100 µM: TGI [1] | TGI [2] | TGI [3] | TGI [4] | TGI [5] | TGI [6] | TGI [7] | TGI [8] | TGI [9] | TGI [10]
